Here are results for 16 compounds from PubChem BioAssay (NCI).

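Values below derive from 48-hour exposures of cells grown in 96-well plates, with endpoints linearly interpolated between the two concentrations bracketing the appropriate inhibition level. The concentration for 50% growth inhibition is given as GI50. TGI: total growth inhibition.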

Holding throughout (test): inhibition of tumour cell growth, NCI panel, 48 h
The test system of assay [1] is HCT-116 colon.
The subject of assay [2] is HT29 colon.
For assay [3], the system named is K-562 leukemia.
Assay [4] deals with LOX IMVI melanoma.
The subject of assay [5] is M14 melanoma.
Assay [6] has as its system SF-295 CNS.
For assay [7], the system named is SF-539 CNS.
The subject of assay [8] is SW-620 colon.

Turning to `Cn1c(=O)c2c3oc(=O)cc(O)c3c(=O)n3c4ccccc4n(c1=O)c23`, the TGI was above 100 µM in assay [1]; above 100 µM in assay [2]; 65.8 µM in assay [3]; 82.4 µM in assay [4]; above 100 µM in assay [5]; above 100 µM in assay [6]. The TGI in assay [7] and in assay [8] was above 100 µM in each case.

With `COC(=O)C(CC=O)C(=O)C(=O)Nc1cccc(C(F)(F)F)c1` (stereo not drawn), the TGI in assay [1], in assay [2], in assay [3], in assay [4], in assay [5] and in assay [6] was above 100 µM throughout. Further, the TGI in assay [7] and in assay [8] was above 100 µM in each case.

Regarding `Oc1cc2cc(-c3ccccc3)[nH]c2c2ccccc12`, the TGI in assay [1] was 37.1 µM; in assay [2] it was above 100 µM; in assay [3], above 88.8 µM; in assay [4], 34.3 µM; in assay [5], 61 µM; in assay [6] it was above 24.5 µM. For the same compound, the results for the TGI in assay [7] and in assay [8] were 97.1 µM and above 100 µM, respectively.

As to `CC(=O)[CH-]C(=O)c1ccccc1.CC(=O)[CH-]C(=O)c1ccccc1.[O]=[U+2]=[O]`, the GI50 in assay [2] is 23.4 µM; in assay [3], 37.3 µM; in assay [4], 25.4 µM; in assay [5] it was 35.8 µM; in assay [6] it was 6.55 µM; in assay [8], 35.3 µM. Besides, the TGI in assay [2] was 57.4 µM; in assay [3], above 100 µM; in assay [4], above 100 µM; in assay [5], above 100 µM; in assay [6], above 100 µM; in assay [8] it was above 100 µM.

For `COc1ccc([Se]c2ccc(OC)cc2OC)c(OC)c1`, the TGI in assay [1] was 46.5 µM; in assay [2], 29.7 µM; in assay [3] it was above 100 µM; in assay [4], above 100 µM; in assay [5] it was above 100 µM; in assay [6], 33.7 µM. Further, the TGI in assay [7] and in assay [8] was above 100 µM throughout.

`O=c1c2ccccc2nc(-c2ccccc2)n1NCC1(O)OCC(O)C(O)C1O` (stereo not drawn): the TGI in assay [1], in assay [2], in assay [3], in assay [5], in assay [6] and in assay [7] was above 100 µM in each case. Moreover, the TGI in assay [8] was above 100 µM.

On to `CC(=O)NC1C(OCc2ccccc2)OC(COC(=O)CCCCCCCCCCNC(=O)c2cccc3c(=O)c4ccccc4[nH]c23)C(O)C1OC(C)C(=O)NC(C)C(=O)NC(CCC(N)=O)C(N)=O` (stereo not drawn), for which the TGI in assay [1], in assay [2], in assay [3], in assay [4], in assay [5] and in assay [6] was above 100 µM throughout. Moreover, the TGI in assay [7] and in assay [8] was above 100 µM in each case.

On to `CC1OC(=O)N(CCCC=C2SCCCS2)C1=O` (stereo not drawn), for which the TGI in assay [1], in assay [2], in assay [3], in assay [4], in assay [5] and in assay [6] was above 100 µM each time. Besides, the TGI in assay [7] and in assay [8] was above 100 µM each time.

With `O=C(CCCCCCCCC(=O)OCC1OC(n2cnc3c(=O)[nH]cnc32)C(O)C1O)OCC1OC(n2cnc3c(=O)[nH]cnc32)C(O)C1O` (stereo not drawn), the TGI in assay [1], in assay [2], in assay [3], in assay [4], in assay [5] and in assay [6] was above 100 µM in each case. In addition, the TGI in assay [7] and in assay [8] was above 100 µM throughout.

With `Cc1nnc2n1N=C(CC(=O)c1ccc(O)cc1O)CN2N`, the TGI in assay [1], in assay [2], in assay [3], in assay [4], in assay [5] and in assay [6] was above 100 µM each time. For the same compound, the TGI in assay [7] is above 100 µM; in assay [8] it was 31 µM.

Regarding `COC(=O)/C(C#N)=C1\N=NNN1CCCN1CCOCC1`, the TGI in assay [1], in assay [2], in assay [3], in assay [4], in assay [5] and in assay [6] was above 100 µM each time. The TGI in assay [7] and in assay [8] was above 100 µM each time.

In the case of `S=C(Nc1ccccc1)Nc1[nH]c(=S)sc1-c1nc2ccccc2[nH]1`, the TGI is above 100 µM in assay [2]; above 100 µM in assay [3]; above 100 µM in assay [4]; above 100 µM in assay [5]; above 100 µM in assay [6]; 74.3 µM in assay [7]. In assay [8], the TGI was above 100 µM.

As for `CC(C)c1ccc(/C=C(\NC(=O)c2ccccc2)c2nc3ccccc3[nH]2)cc1`, the TGI in assay [1], in assay [2], in assay [3], in assay [4], in assay [5] and in assay [7] was above 100 µM each time. This compound also had a TGI in assay [8] above 100 µM.

On to `CC1=C(C#N)C(N)=C2C(C)=C(C#N)C(N)=C12`, for which the TGI in assay [1], in assay [2], in assay [3], in assay [4], in assay [5] and in assay [6] was above 100 µM in each case. Further, the TGI in assay [7] and in assay [8] was above 100 µM each time.

Consider `C/C(=N\NS(=O)(=O)c1ccc(C)cc1)c1ccc[n+]([O-])n1`, for which the TGI in assay [1], in assay [2], in assay [3], in assay [5], in assay [6] and in assay [7] was above 100 µM in each case. In assay [8], this compound returned a TGI above 100 µM.

Take `CCOC(=O)c1cnc2[nH]c(=O)c3ccccc3n2c1=O`: the TGI in assay [1], in assay [2], in assay [3], in assay [4], in assay [5] and in assay [6] was above 100 µM each time. The TGI in assay [7] and in assay [8] was above 100 µM each time.
